What was measured:
Mcl-1 1780 cell line = assay: DAPI fluorescence cell-based cytotoxicity (apoptosis) assay, Mcl-1 1780; parameters: species or system mouse; details: Mcl-1 1780, 24 hours, 125 nM to 1 μM
Experimental: (§1) The mouse leukemia-derived cell lines Mcl-1-1780 and Bcl-2-1863 (Ryan et al., Proc. Nat. Acad. Sci USA, 107, 12895-12900, which is hereby incorporated by reference in its entirety) were obtained under license from Dana Farber Cancer Institute. Cells were grown in RPMI 1640 medium (GIBCO-BRL) with 2 mM L-glutamine, 4.5 g/L glucose, 1.0 mM sodium pyruvate and 5% fetal bovine serum. Cells were expanded in tissue culture in appropriate media and then sub-cultured into 96-well plates at a seeding density of 20,000 cells per well. After incubation for 24 hours, cells were treated with compounds that are titrated into appropriate medium with FCS. Four concentrations of compound were used: 1 μM, 500 nM, 250 nM, and 125 nM. Assay was run in triplicate for each compound at each concentration and averages were calculated. Cells were treated with compound for 24 hours, then fixed with methanol and stained with the DNA-binding agent DAPI (4′,6-diamidino-2-phenylindole). The cells were then examined by fluorescent microscopy; cells in which caspase 3 and caspase 7 have not been activated will emit at […] when excited by […] light. Caspase-mediated cleavage of nucleosomal proteins causes condensed, pyenotic nuclear morphology that may be measured by cell counting.

Bcl-2 1863 cell line = assay: DAPI fluorescence cell-based cytotoxicity (apoptosis) assay, Bcl-2 1863; parameters: species or system mouse; details: Bcl-2 1863, 24 hours, 125 nM to 1 μM
Experimental: as §1

DHL-6 = assay: In situ mitochondrial cytochrome c release assay, DHL-6; format: cell-based; details: DHL-6 (Bax/Bak-functional), semi-permeabilized cells, 1 hour
From the text: (§2) The on-target activity of compound 12 was validated. Changes in mitochondrial integrity were observed utilizing anti-cytochrome c conjugated to Alexa488 (BD). When the mitochondria are intact, they retain cytochrome c and have bright, punctate staining with the antibody whereas cells with compromised mitochondrial integrity will lose cytochrome c and will not stain with the antibody. This can be observed by microscopy as well as measured by a shift in fluorescence on the FL1 channel of a flow cytometer.
(§3) The selective response of mitochondria in semi-permeabilized cell lines to the compounds was observed. The assay was adapted from (Campos et al. (2006) Cytometry Part A. 69(A):515-523, which is hereby incorporated by reference in its entirety).
(§4) Suspension cell lines SUDHL6, SUDHL8, and SUDHL10 were grown in RPMI, washed once in 1×PBS and re-suspended at a concentration of 2e6/ml in assay buffer with 0.0025% Digitonin. Assay buffer; 300 mM Trehalose, 10 mM HEPES-KOH pH 7.7, 80 mM KCl, 1 mM EGTA, 1 mM EDTA, 0.1% BSA. 5 mM Succinate. […] Cytochrome c loss was measured by microscopy. At least 100 cells per treatment were counted and scored as positive for cytochrome c loss if they lacked staining. In both methods DMSO was calculated as 0% cytochrome c loss and the Bim response for DHL6 was used to determine 100% cytochrome c loss.

DHL-8 = assay: In situ mitochondrial cytochrome c release assay, DHL-8; format: cell-based; details: DHL-8, semi-permeabilized cells, 1 hour
From the text: as §2, §3, §4

DHL-10 = assay: In situ mitochondrial cytochrome c release assay, DHL-10; format: cell-based; details: DHL-10 (Bax/Bak-deficient), semi-permeabilized cells, 1 hour
From the text: as §2, §3, §4

With `CCN1CCN(C(c2ccc(C(F)(F)F)cc2)c2ccc3cccnc3c2O)CC1` (centres unmarked) [compound 12, 7-((4-ethylpiperazin-1-yl)(4-(trifluoromethyl)phenyl)methyl)quinolin-8-ol] the “induction of apoptosis (cells exhibiting apoptosis)” value (Mcl-1 1780 cell line) was “induce apoptosis”, the “induction of apoptosis (cells exhibiting apoptosis)” value (Bcl-2 1863 cell line) was “significantly lesser degree” and the cytochrome c release (DHL-6) was “activity”. The cytochrome c release (DHL-8) was “reduced activity” and the cytochrome c release (DHL-10) was “lack of activity”.

Source: patent US10765673B2, “Methods and compositions useful for treating diseases involving Bcl-2 family proteins with quinoline derivatives” (Eutropics Pharmaceuticals, Inc., priority 2012, dated 2020)
